Columns and labels:
AR / CBP ternary complex = assay: Ternary complex formation assay (sandwich ELISA, AR capture / CBP detection) in VCaP cell lysates; assay type: cell-based; details: 1.5 hours treatment, sandwich ELISA (AR capture, CBP or p300 detection)
In short: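 VCaP cells (50K/well, 5% charcoal-stripped FBS, ≥3 days) treated with bifunctional compound for 1.5 h, then lysed 30 min at 4 °C. AR captured on anti-AR (AR 441) plates; bound CBP or p300 detected by rabbit mAb plus HRP secondary. QuantaRed chemifluorescence read at ex 570/em 585, immediately and at 5 and 15 min.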

VCaP cells = assay: VCaP growth inhibition assay; assay type: cell-based; details: 30 pM R1881, 9 days, CTG
In short: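 VCaP cells in phenol red-free DMEM/5% CSS, pre-incubated 72 h, then stimulated with R1881 (final 30 pM) and treated with 1:5 serial dilutions (final 100 nM to 10 fM) for 9 days at 37 °C. Viability by CellTiter-Glo luminescence; IC50 from 4-parameter logistic fit of RLU vs concentration.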

EC50 (AR / CBP ternary complex) [nM]	IC50 (VCaP cells) [nM]	SMILES
< 1	≤ 0.1	COc1cc(OC2C(C)(C)C(NC(=O)c3ccc(N4CCC(OC5CCC(n6nc(N7CCCc8cc(-c9cnn(C)c9)c(C(F)F)cc87)c7c6CCN(C(C)=O)C7)CC5)CC4)cc3)C2(C)C)ccc1C#N (stereo not drawn) [Compound 308, 4-[4-[4-[5-acetyl-3-[7-(difluoromethyl)-6-(1-methylpyrazol-4-yl)-3,4-dihydro-2H-quinolin-1-yl]-6,7-dihydro-4H-pyrazolo[4,3-c]pyridin-1-yl]cyclohexoxy]-1-piperidyl]-N-[3-(4-cyano-3-methoxy-phenoxy)-2,2,4,4-tetramethyl-cyclobutyl]benzamide]
< 1	0.1 to 1	CC(=O)N1CCc2c(c(-c3cccc4cc(-c5cnn(C6CCN(C7CCN(c8ncc(C(=O)NC9C(C)(C)C(Oc%10ccc(C#N)c(Cl)c%10)C9(C)C)cn8)CC7)C6)c5)ncc34)nn2C2CCOCC2)C1 (stereo not drawn) [Compound 222, 2-[4-[3-[4-[8-(5-acetyl-1-tetrahydropyran-4-yl-6,7-dihydro-4H-pyrazolo[4,3-c]pyridin-3-yl)-3-isoquinolyl]pyrazol-1-yl]pyrrolidin-1-yl]-1-piperidyl]-N-[3-(3-chloro-4-cyano-phenoxy)-2,2,4,4-tetramethyl-cyclobutyl]pyrimidine-5-carboxamide]
< 1	≤ 0.1	COc1cc(OC2C(C)(C)C(NC(=O)c3ccc(N4CCC(N5CC6(CCC(n7nc(N8CCCc9cc(-c%10cnn(C)c%10)c(C(F)F)cc98)c8c7CCN(C(C)=O)C8)CC6)C5)CC4)cc3)C2(C)C)ccc1C#N (stereo not drawn) [Compound 372, 4-[4-[7-[5-acetyl-3-[7-(difluoromethyl)-6-(1-methylpyrazol-4-yl)-3,4-dihydro-2H-quinolin-1-yl]-6,7-dihydro-4H-pyrazolo[4,3-c]pyridin-1-yl]-2-azaspiro[3.5]nonan-2-yl]-1-piperidyl]-N-[3-(4-cyano-3-methoxy-phenoxy)-2,2,4,4-tetramethyl-cyclobutyl]benzamide]
< 1	≤ 0.1	CC(=O)N1CCc2c(c(N3CCCc4cc(-c5cnn(C)c5)c(C(F)F)cc43)nn2C2CCC(N(C)C3CCN(c4ncc(C(=O)NC5C(C)(C)C(Oc6ccc(C#N)c(Cl)c6)C5(C)C)cn4)CC3)CC2)C1 (stereo not drawn) [Compound 284, 2-[4-[[4-[5-acetyl-3-[7-(difluoromethyl)-6-(1-methylpyrazol-4-yl)-3,4-dihydro-2H-quinolin-1-yl]-6,7-dihydro-4H-pyrazolo[4,3-c]pyridin-1-yl]cyclohexyl]-methyl-amino]-1-piperidyl]-N-[3-(3-chloro-4-cyano-phenoxy)-2,2,4,4-tetramethyl-cyclobutyl]pyrimidine-5-carboxamide]
< 1	> 100	CC(=O)N1CCc2c(c(N3CCCc4cc(-c5cnn(C)c5)c(C(F)F)cc43)nn2CC2CCN(c3ncc(C(=O)NC4C(C)(C)C(Oc5ccc(C#N)c(Cl)c5)C4(C)C)cn3)CC2)C1 (stereo not drawn) [Compound 53, 2-[4-[[5-acetyl-3-[7-(difluoromethyl)-6-(1-methylpyrazol-4-yl)-3,4-dihydro-2H-quinolin-1-yl]-6,7-dihydro-4H-pyrazolo[4,3-c]pyridin-1-yl]methyl]-1-piperidyl]-N-[3-(3-chloro-4-cyano-phenoxy)-2,2,4,4-tetramethyl-cyclobutyl]pyrimidine-5-carboxamide]
< 1	1 to 100	CC(=O)N1CCc2c(c(-c3cccc4cc(-c5ccc(C(=O)NCCc6ncc(C(=O)NC7C(C)(C)C(Oc8ccc(C#N)c(Cl)c8)C7(C)C)cn6)nc5)ncc34)nn2C2CCOCC2)C1 (stereo not drawn) [Compound 78, 2-[2-[[5-[8-(5-acetyl-1-tetrahydropyran-4-yl-6,7-dihydro-4H-pyrazolo[4,3-c]pyridin-3-yl)-3-isoquinolyl]pyridine-2-carbonyl]amino]ethyl]-N-[3-(3-chloro-4-cyano-phenoxy)-2,2,4,4-tetramethyl-cyclobutyl]pyrimidine-5-carboxamide]
1 to 10	0.1 to 1	CC(=O)N1CCc2c(c(N3CCCc4ccc(C(F)F)cc43)nn2C2CC3(C2)CN(CC2CC4(C2)CN(c2ncc(C(=O)NC5C(C)(C)C(Oc6ccc(C#N)c(Cl)c6)C5(C)C)cn2)C4)C3)C1 (stereo not drawn) [Compound 219, 2-[6-[[6-[5-acetyl-3-[7-(difluoromethyl)-3,4-dihydro-2H-quinolin-1-yl]-6,7-dihydro-4H-pyrazolo[4,3-c]pyridin-1-yl]-2-azaspiro[3.3]heptan-2-yl]methyl]-2-azaspiro[3.3]heptan-2-yl]-N-[3-(3-chloro-4-cyano-phenoxy)-2,2,4,4-tetramethyl-cyclobutyl]pyrimidine-5-carboxamide]
< 1	≤ 0.1	CC(=O)N1CCc2c(c(-c3cccc4cc(-c5ccc(C(=O)NC6CCN(c7ncc(C(=O)NC8C(C)(C)C(Oc9ccc(C#N)c(Cl)c9)C8(C)C)cn7)CC6)nc5)ncc34)nn2C2CCOCC2)C1 (stereo not drawn) [Compound 180, 2-[4-[[5-[8-(5-acetyl-1-tetrahydropyran-4-yl-6,7-dihydro-4H-pyrazolo[4,3-c]pyridin-3-yl)-3-isoquinolyl]pyridine-2-carbonyl]amino]-1-piperidyl]-N-[3-(3-chloro-4-cyano-phenoxy)-2,2,4,4-tetramethylcyclobutyl]pyrimidine-5-carboxamide]
1 to 10	1 to 100	CC(=O)N1CCc2c(c(N3CCCc4cc(-c5cnn(C)c5)c(C(F)F)cc43)nn2C2CCC(C3CCC4(CC3)CN(c3ncc(C(=O)NC5C(C)(C)C(Oc6ccc(C#N)c(Cl)c6)C5(C)C)cn3)C4)CC2)C1 (stereo not drawn) [Compound 379, 2-[7-[4-[5-acetyl-3-[7-(difluoromethyl)-6-(1-methylpyrazol-4-yl)-3,4-dihydro-2H-quinolin-1-yl]-6,7-dihydro-4H-pyrazolo[4,3-c]pyridin-1-yl]cyclohexyl]-2-azaspiro[3.5]nonan-2-yl]-N-[3-(3-chloro-4-cyano-phenoxy)-2,2,4,4-tetramethyl-cyclobutyl]pyrimidine-5-carboxamide]
> 100	1 to 100	CC(=O)N1CCc2c(c(N3CCCc4cc(-c5cnn(C)c5)c(C(F)F)cc43)nn2C2CN(CC3CCN(c4ncc(C(=O)NC5C(C)(C)C(Oc6ccc(C#N)c(Cl)c6)C5(C)C)cn4)CC3)C2)C1 (stereo not drawn) [Compound 10, 2-[4-[[3-[5-acetyl-3-[7-(difluoromethyl)-6-(1-methylpyrazol-4-yl)-3,4-dihydro-2H-quinolin-1-yl]-6,7-dihydro-4H-pyrazolo[4,3-c]pyridin-1-yl]azetidin-1-yl]methyl]-1-piperidyl]-N-[3-(3-chloro-4-cyano-phenoxy)-2,2,4,4-tetramethyl-cyclobutyl]pyrimidine-5-carboxamide]
1 to 10	0.1 to 1	CC(=O)N1CCc2c(c(N3CCCc4cc(-c5ccn(C)n5)c(C(F)F)cc43)nn2C2CCN(CC3CCC(n4cc(C(=O)NC5C(C)(C)C(Oc6ccc(C#N)c(Cl)c6)C5(C)C)cn4)CC3)CC2)C1 (stereo not drawn) [Compound 241, 1-[4-[[4-[5-acetyl-3-[7-(difluoromethyl)-6-(1-methylpyrazol-3-yl)-3,4-dihydro-2H-quinolin-1-yl]-6,7-dihydro-4H-pyrazolo[4,3-c]pyridin-1-yl]-1-piperidyl]methyl]cyclohexyl]-N-[3-(3-chloro-4-cyano-phenoxy)-2,2,4,4-tetramethyl-cyclobutyl]pyrazole-4-carboxamide]
< 1	0.1 to 1	CC(=O)N1CCc2c(c(N3CCCc4cc(-c5cnn(C)c5)c(C(F)F)cc43)nn2C2CCN([C@@H]3CCN(c4ncc(C(=O)NC5C(C)(C)C(Oc6ccc(C#N)c(Cl)c6)C5(C)C)cn4)C3)CC2)C1 (stereo partly drawn) [Compound 335, 2-[(3R)-3-[4-[5-acetyl-3-[7-(difluoromethyl)-6-(1-methylpyrazol-4-yl)-3,4-dihydro-2H-quinolin-1-yl]-6,7-dihydro-4H-pyrazolo[4,3-c]pyridin-1-yl]-1-piperidyl]pyrrolidin-1-yl]-N-[3-(3-chloro-4-cyano-phenoxy)-2,2,4,4-tetramethyl-cyclobutyl]pyrimidine-5-carboxamide]
1 to 10	0.1 to 1	CC(=O)N1CCc2c(c(N3CCc4cc(-c5cnn(C)c5)c(C(F)F)cc43)nn2C2CCN(CC3CCN(c4ncc(C(=O)NC5C(C)(C)C(Oc6ccc(C#N)c(Cl)c6)C5(C)C)cn4)CC3)CC2)C1 (stereo not drawn) [Compound 13, 2-[4-[[4-[5-acetyl-3-[6-(difluoromethyl)-5-(1-methylpyrazol-4-yl)indolin-1-yl]-6,7-dihydro-4H-pyrazolo[4,3-c]pyridin-1-yl]-1-piperidyl]methyl]-1-piperidyl]-N-[3-(3-chloro-4-cyano-phenoxy)-2,2,4,4-tetramethyl-cyclobutyl]pyrimidine-5-carboxamide]
1 to 10	0.1 to 1	CC(=O)N1CCc2c(c(-c3cccc4cc(-c5ccc(CC6CC7(C6)CN(c6ncc(C(=O)NC8C(C)(C)C(Oc9ccc(C#N)c(Cl)c9)C8(C)C)cn6)C7)nc5)ncc34)nn2C2CCOCC2)C1 (stereo not drawn) [Compound 228, 2-[6-[[5-[8-(5-acetyl-1-tetrahydropyran-4-yl-6,7-dihydro-4H-pyrazolo[4,3-c]pyridin-3-yl)-3-isoquinolyl]-2-pyridyl]methyl]-2-azaspiro[3.3]heptan-2-yl]-N-[3-(3-chloro-4-cyano-phenoxy)-2,2,4,4-tetramethyl-cyclobutyl]pyrimidine-5-carboxamide]

SMILES	EC50 (AR / CBP ternary complex) [nM]	IC50 (VCaP cells) [nM]
CC(=O)N1CCc2c(c(Nc3ccc(-c4cnn(C)c4)cc3F)nn2C2CN(CCC3CCN(c4ncc(C(=O)NC5C(C)(C)C(Oc6ccc(C#N)c(Cl)c6)C5(C)C)cn4)CC3)C2)C1 (stereo not drawn) [Compound 3, 2-[4-[2-[3-[5-acetyl-3-[2-fluoro-4-(1-methylpyrazol-4-yl)anilino]-6,7-dihydro-4H-pyrazolo[4,3-c]pyridin-1-yl]azetidin-1-yl]ethyl]-1-piperidyl]-N-[3-(3-chloro-4-cyano-phenoxy)-2,2,4,4-tetramethyl-cyclobutyl]pyrimidine-5-carboxamide]	> 100	> 100
